Test results: patent US9132118B2, “Taxane analogs for the treatment of brain cancer” (Tapestry Pharmaceuticals, Inc., priority 2007, dated 2015)
Like-named read-outs stand apart in the source and are kept apart here.

Columns and labels:
[1] = tested on: human U251 (glioblastoma) CNS tumor cells; conditions: for median day of death and median survival time: iv, 240 h
Description: Tumor Model: Each animal was implanted with one million U251 human CNS tumor cells from an in vitro cell line by ic injection with a 25 gauge needle. The day of tumor implantation (May 24, 2006) was designated as day 0. A sufficient number of mice were implanted so that animals with body weights in a range as narrow as possible were selected for the trial on the day of treatment initiation (day 1 after tumor implantation). Animals were randomly assigned to the treatment groups and individually identified by earmark codes.
A portion of this solution was then diluted with the complete vehicle to achieve the lower dosing concentration of 1.2 mg/mL. […] Temozolomide (Temodar, Schering Corporation) was prepared on each day of injection in Klucel+tween 80 at a concentration of 4 mg/mL. Temozolomide was administered within 5 minutes of formulation on the basis of exact body weight using a volume of 0.2 mL/10 g of body weight.
Data Collection: Animal health surveillance was conducted and mortality data were collected daily. The animals were weighed twice weekly starting with the first day of treatment.
Study Duration: The study was terminated 100 days after tumor implantation. Any animal found moribund or whose body weight dropped below 14 g was euthanized prior to study termination.
Parameters Evaluated: Number of 100-day survivors, median day of death, and the increase in lifespan based on median day of death and expressed as a percentage (% ILS), median survival time and the % ILS based on median survival time.
Administration of the Ringer's solution was initiated when animal body weights dropped by greater than 10% and continued until the animal recovered, died, or was euthanized.

[2] = S-(1) rat oral bioavailability, formulations evaluated in vivo
Description: IV formulation (Cremophor El P/alcohol) and a suspension of the compound of Formula S-(1) in aqueous medium: Several studies were performed to investigate specific parameters.
Using the 50:50 CremophoπEthanol formulation as a case study (AUC last: 2540; norm AUCinf: 477), F was calculated from the ratio of the normalized PO and IV AUCs: F(%)=norm. AUC PO/norm. AUC IV.

[3] = S-(1) pharmacokinetics in mouse, plasma and brain levels after single IV bolus; format: in vivo, mice; conditions: single IV 20 mg/kg; for AUC (0-t) / AUC (0-∞) / Cmax / MRT (expo): male CD-1 mice
Description: S-(I) was formulated in 7% Ethanol: 3% Cremophor EL: 90% D5W (5% Dextrose in water). The formulated drug was administered as a single IV bolus via tail vein injection. The details are set out below:
Sample Collection timing: Terminal blood (plasma) and brain specimens were collected at 9 times post-dose, with 4 mice per sample time. Sample collection times:
Blood collection: A terminal blood sample was collected from each mouse via cardiac puncture. The whole blood was collected on wet ice, spun down immediately (at 4° C.), and plasma stored frozen at −20° C. until analysis. The anticoagulant used was K2EDTA. Brain Sample Collection: Whole brains were removed by dissection. Brains were collected on wet ice, weighed, and stored at −20° C.

central nervous system = assay: Central nervous system (CNS) safety study in rats; format: in vivo, rat
Description: This study was conducted at ClinTrials BioResearch (CTBR, Montreal, Quebec, Canada) as a GLP study.
Results: All animals were observed twice daily for signs of ill health or reaction to treatment, except on day of arrival and necropsy. A Functional Observation Battery
(FOB) assessment, along with grip strength, hind limb splay and body temperature measurements were performed for all animals once pre-dose and at approximately 15 minutes, 1 hour, 4 hours, 8 hours and 24 hours post-dose. After the last observation, all animals were euthanized without further examination.

[4] = tested on: bovine microtubule protein (tubulin plus microtubule associated proteins); assay: In vitro ED50 MT polymerization study (DAPI fluorescence tubulin assay); format: biochemical
Description: In this tubulin binding assay, microtubule protein (MTP) is used as a substrate. The assay contains bovine tubulin plus microtubule associated proteins (MAP). MTP is polymerized into microtubules in the presence of DAPI (4′,6′-diamidino-2-phenylindole), a fluorescent compound. DAPI binds to tubulin; when microtubules are formed and there is an enhancement of fluorescence. The microtubule formation is measured as a function of time, using a fluorescence plate reader. […] The method used is based on the procedure published by Donna M. Barron, et al, “Fluorescence-based high-throughput assay for antimicrotuble drugs” Analytical Biochemistry, 315: 49-56, 2003, which is incorporated by reference in its entirety. The excitation wavelength, in that assay, was set at 370 nm and the emission wavelength was set at 450 nm for the DAPI experiments.
A Bio-Tek FL 600 microplate Fluorescence Reader was used to measure the relative level of fluorescence in the DAPI assay.
Assays were conducted in 96-well plates. […] The final DMSO concentration was 4%. The plates were incubated at 37° C. for 30 minutes and read in a fluorescence plate reader using an excitation wavelength of 360 nm and an emission wavelength of 460 nm. Fluorescence values were corrected for the sample without compound. […] Experiments were done twice in triplicate. Results were subsequently combined and fit to a non-linear regression program.

Compound: C=C[C@H]1O[C@H]2CC3OC[C@@]3(OC(C)=O)[C@H]3[C@H](OC(=O)c4ccccc4)[C@]4(C(C)(C)O)C[C@H](OC(=O)[C@H](O)[C@H](CC(C)C)NC(=O)OC(C)(C)C)C(C)=C4[C@H](OC(C)=O)[C@H](O1)[C@]23C (stereo partly drawn) [S-(1)]
- median day of death and median survival time ([1]; 12 mg/kg): 14.5 days
- median day of death and median survival time ([1]; 20 mg/kg): 16 days
- effect against the U251 human CNS tumor cells (in words) ([1]; monotherapy or combination treatment, intracranial xenograft): moderate effect
- difference in F with different formulations (in words) [2]: no significant difference in F with different formulations
- bioavailability ([2]; in vivo, using a cremophor-free formulation as reference, read-out: effective F (real bioavailability)): 60 to 70%
- AUC (0-t) ([3]; Brain): 64984.9 ng·h/mL
- AUC (0-∞) ([3]; Brain): 88742.9 ng·h/mL
- Cmax ([3]; Brain): 3726.6 ng/mL
- MRT (expo) ([3]; Brain): 42.5 h
- AUC (0-t) ([3]; Plasma): 16870.2 ng·h/mL
- AUC (0-∞) ([3]; Plasma): 16951.2 ng·h/mL
- Cmax ([3]; Plasma): 1550.2 ng/mL
- MRT (expo) ([3]; Plasma): 17.6 h
- passage of the blood-brain barrier (in words) ([3]; mouse model): not impeded by the blood-brain barrier
- biological effect on central nervous system (functional observational battery, grip strength, hind limb splay, body temperature) (central nervous system; single intravenous 6.25, 12.5 or 25 mg/kg, male Sprague Dawley rats, 15 minutes, 1, 4, 8 and 24 hours post-dose): no biological effects
- deaths or treatment-related clinical signs (central nervous system; single intravenous 6.25, 12.5 or 25 mg/kg, male rats): no deaths or treatment-related clinical signs
- no adverse effect level (central nervous system; single intravenous dose, male Sprague Dawley rats): 25 mg/kg
- ED50 Compound/ED50 Paclitaxel ([4]; ratio of tubulin polymerization ED50 values): 0.53
- EC50 ([4]; tubulin polymerization, 37° C. 30 minutes, percent of maximum assembly at 25 μM paclitaxel): 1.58 ± 0.46 µM
